The record followed here is patent US11530229B2, “Cyano cyclobutyl compounds for CBL-B inhibition and uses thereof” (Nurix Therapeutics, Inc., priority 2019, dated 2022).

In assay [1] the test system is primary human total T-cells. The experiment in a line: T-cell activation, IL-2 secretion, Biological Example 13. Format: cell-based. To be noted: 48 hours, fold change over baseline, Table 8; for IL-2 secretion CD3/CD28 0.3 μM / IL-2 secretion CD3/CD28 1 μM: anti-CD3 and anti-CD28 co-stimulation; for IL-2 secretion CD3/CD28 0.3 μM: 0.3 μM inhibitor; for IL-2 secretion CD3/CD28 1 μM / IL-2 secretion CD3 1 μM: 1 μM inhibitor; for IL-2 secretion CD3 1 μM / IL-2 secretion CD3 3 μM: anti-CD3 stimulation alone; for IL-2 secretion CD3 3 μM: 3 μM inhibitor.

The subject of assay [2] is primary human total T-cells. The assay can be described thus: T-cell activation, IL-2 secretion, Biological Example 2. Format: cell-based. Particulars: 48 hours, fold change over baseline; for fold induction at 0.3 µM: 0.3 μM inhibitor; for fold induction at 1 µM: 1 μM inhibitor; for fold induction at 3 µM: 3 μM inhibitor.
The test system of assay [3] is primary human total T-cells. The assay can be described thus: T-cell activation, CD25 surface staining, Biological Example 13. Format: cell-based. To be noted: anti-CD3 and anti-CD28 co-stimulation, 48 hours, fold change over baseline, Table 8.
Assay [4] relates to primary human total T-cells. The experiment in a line: T-cell activation, CD25 surface staining, Biological Example 9. Format: cell-based. To be noted: anti-CD3 and anti-CD28 co-stimulation, 48 hours, fold change over baseline, Table 5.
Assay [5] deals with T1, Cbl-b (Homo sapiens (Human), UniProt Q13191). The experiment in a line: Cbl-b displacement assay (Cbl-b inhibition assay), Biological Example 8. The assay is classed as binding. To be noted: Table 4. The protocol: (§1) Candidate compounds were evaluated for their ability to bind and inhibit Cbl-b, an E3 ubiquitin-protein ligase, as evidenced by their ability to displace a fluorophore-labeled probe bound to Cbl-b.
(§2) The ability of candidate compounds to displace a known inhibitor and thereby inhibit Cbl-b activity was measured by monitoring the interaction of Cbl-b with a fluorophore-labeled probe in the presence of the candidate compound. A truncated variant of Cbl-b (UniProt number Q13191) containing residues 36-427 and an Avitag at its N-terminus was co-expressed with BirA biotin ligase and purified using a standard protocol (see Dou et al., Nature Structural and Molecular Biology 8: 982-987, 2013; Avidity LLC).
Fluorescently-labeled inhibitor probe was synthesized and tagged with BODIPY FL. Cbl-b displacement assays were performed in a 384-well plate at room temperature in a […] by pre-incubating 0.5 nM Cbl-b or 0.125 nM Cbl-b (final concentration, indicated as “High” and “Low,” respectively) in an assay buffer containing 20 mM HEPES pH 7.5, 150 mM NaCl, 0.01% Triton X-100, 0.01% BSA, and 0.5 mM TCEP in the presence of a candidate compound in 1% DMSO (final concentration) for 1 hour. After incubation in the presence of the candidate compound, the plate was incubated for an additional one hour in the presence of an approximate EC40 binding saturation consisting of 150 nM fluorescently-labeled inhibitor probe and 2 nM Streptavidin-Terbium (Cisbio) (final concentrations). Following the one hour incubation, the plates were read for TR-FRET signal at […] using an Envision plate reader (Perkin Elmer).
(§3) The resulting data for the Cbl-b activity assays were analyzed using standard methods to determine the IC50 values for the tested compounds.

For assay [6], the target named is T1, Cbl-b. The assay can be described thus: Cbl-b displacement assay (Cbl-b inhibition assay), Biological Example 12. Format: binding. Particulars: Table 7. The protocol:
as §1, §2
Fluorescently-labeled inhibitor probe was synthesized and tagged with BODIPY FL. Cbl-b displacement assays were performed in a 384-well plate at room temperature in a […] by pre-incubating 0.5 nM Cbl-b or 0.125 nM Cbl-b (final concentration, indicated as “High” and “Low,” respectively) in an assay buffer containing 20 mM HEPES pH 7.5, 150 mM NaCl, 0.01% Triton X-100, 0.01% BSA and 0.5 mM TCEP in the presence of a candidate compound in 1% DMSO (final concentration) for one hour. After incubation in the presence of the candidate compound, the plate was incubated for an additional one hour in the presence of an approximate EC40 binding saturation consisting of 150 nM fluorescently-labeled inhibitor probe and 2 nM Streptavidin-Terbium (Cisbio) (final concentrations). Following the one hour incubation, the plates were read for TR-FRET signal at […] using an Envision plate reader (Perkin Elmer).
as §3

The subject of assay [7] is primary human total T-cells. The experiment in a line: T-cell activation, CD25 surface staining, Biological Example 2. Particulars: 48 hours, fold change over baseline; for fold induction at 0.3 µM: 0.3 μM inhibitor; for fold induction at 1 µM: 1 μM inhibitor; for fold induction at 3 µM: 3 μM inhibitor. The assay is classed as cell-based.
Assay [8] relates to primary human total T-cells. The experiment in a line: T-cell activation, IL-2 secretion, Biological Example 9. Format: cell-based. Particulars: 48 hours, fold change over baseline, Table 5; for IL-2 secretion CD3/CD28 0.3 μM / IL-2 secretion CD3/CD28 1 μM: anti-CD3 and anti-CD28 co-stimulation; for IL-2 secretion CD3/CD28 0.3 μM: 0.3 μM inhibitor; for IL-2 secretion CD3/CD28 1 μM / IL-2 secretion CD3 1 μM: 1 μM inhibitor; for IL-2 secretion CD3 1 μM / IL-2 secretion CD3 3 μM: anti-CD3 stimulation alone; for IL-2 secretion CD3 3 μM: 3 μM inhibitor.

Assay [9] deals with T1, Cbl-b. The experiment in a line: Cbl-b displacement assay (Cbl-b inhibition assay), Biological Example 1. The assay is classed as binding. In a few lines:
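Avitag-biotinylated human Cbl-b (residues 36–427) at 0.5 nM ("High") or 0.125 nM ("Low") pre-incubated 1 h with compound (1% DMSO) in HEPES pH 7.5/NaCl/Triton/BSA/TCEP, RT. Then 1 h with 150 nM BODIPY FL inhibitor probe (~EC40) plus 2 nM streptavidin-Tb. TR-FRET read at 520/620 nm for probe displacement.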

Where [10] appears, read: anti-CD3 and anti-CD28 co-stimulation.
Setting [11] is: anti-CD3 and anti-CD28 co-stimulation, read-out: IL-2 secretion CD3/CD28 1 μM.
[12] abbreviates: anti-CD3 stimulation alone, read-out: IL-2 secretion CD3 1 μM.
Setting [13] is: 0.5 nM Cbl-b final concentration (High), read-out: Cbl-b IC50 (High).
Where [14] appears, read: anti-CD3 and anti-CD28 co-stimulation, read-out: CD25 staining CD3/CD28 1 μM.
Setting [15] is: anti-CD3 stimulation alone, read-out: CD25 staining CD3 1 μM.
Setting [16] is: 0.125 nM Cbl-b final concentration (Low), read-out: Cbl-b IC50 (Low).
The mark [17] stands for this setting: 0.125 nM Cbl-b final concentration (Low), read-out: Cbl-b activity IC50 (Low).

T1 sequence (Q13191 36-427): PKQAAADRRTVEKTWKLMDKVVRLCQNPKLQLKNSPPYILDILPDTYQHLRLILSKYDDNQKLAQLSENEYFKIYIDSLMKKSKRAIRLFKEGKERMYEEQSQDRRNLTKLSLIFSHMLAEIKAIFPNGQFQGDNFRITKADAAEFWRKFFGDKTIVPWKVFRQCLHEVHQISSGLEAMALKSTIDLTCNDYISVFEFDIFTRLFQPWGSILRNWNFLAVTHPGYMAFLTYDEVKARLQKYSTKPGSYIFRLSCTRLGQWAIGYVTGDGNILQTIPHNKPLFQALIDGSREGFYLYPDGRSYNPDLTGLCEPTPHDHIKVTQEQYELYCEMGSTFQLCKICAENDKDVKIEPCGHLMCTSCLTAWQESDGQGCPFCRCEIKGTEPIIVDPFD

Turning to `Cc1cc(C(=O)Nc2cccc([C@]3(Cc4nncn4C)C[C@@H](C#N)C3)c2)nc(C2CC2)n1` [Compound 1, N-(3-((1r,3r)-3-cyano-1-((4-methyl-4H-1,2,4-triazol-3-yl)methyl)cyclobutyl)phenyl)-2-cyclopropyl-6-methylpyrimidine-4-carboxamide], the “IL-2 secretion CD3/CD28 0.3 μM” value in assay [1] is listed as “C (C indicates ≤10 fold)”; in assay [8] it was “C (C indicates <10 fold)”. Moreover, the “IL-2 secretion CD3/CD28 1 μM” value in assay [1] is “B (B indicates 11-15 fold)”; in assay [8], “B (B indicates 10-15 fold)”. The “IL-2 secretion CD3 1 μM” value in assay [1] and in assay [8] was “B (B indicates 0.34-0.66 fold)” each time. The “IL-2 secretion CD3 3 μM” value in assay [1] and in assay [8] was “B (B indicates 0.34-0.66 fold)” in each case. Also, the fold induction at 0.3 µM in assay [2] (setting [10]) was at most 15; in assay [7] (setting [10]), 1.24 to 1.39. The fold induction at 1 µM in [2] (setting [11]) is at most 15; in assay [2] (setting [12]) it was under 0.4; in assay [7] (setting [14]), 1.24 to 1.39; in assay [7] (setting [15]) it was 1 to 1.15. Moreover, the fold induction at 3 µM in [2] (anti-CD3 stimulation alone) is under 0.4; in [7] (anti-CD3 stimulation alone) it was 1 to 1.15. Besides, the “CD25 staining CD3/CD28 0.3 μM” value in [3] (0.3 μM inhibitor) and in [4] (0.3 μM inhibitor) was “B (B indicates 1.25-1.39 fold)” throughout. Besides, the “CD25 staining CD3/CD28 1 μM” value in assay [3] (1 μM inhibitor) and in assay [4] (1 μM inhibitor) was “B (B indicates 1.25-1.39 fold)” in each case. For the same molecule, the IC50 fell in the range of 1 to 5 nM in assay [5] (setting [13]); 1 to 5 nM in assay [6] (setting [13]); 2 to 5 nM in assay [9] (0.5 nM Cbl-b final concentration (High), read-out: Cbl-b activity IC50 (High)); 2 to 5 nM in assay [9] (read-out: IC50 values in the Cbl-b inhibition assay of Biological Example 1).

Turning to `Cn1cnnc1C[C@]1(c2cccc(N3Cc4c(cc(CN[C@@H]5CCC(F)(F)C5)cc4C(F)(F)F)C3=O)c2)C[C@H](C#N)C1` [Compound 21, (1R,3r)-3-(3-(6-((((R)-3,3-difluorocyclopentyl)amino)methyl)-1-oxo-4-(trifluoromethyl)isoindolin-2-yl)phenyl)-3-((4-methyl-4H-1,2,4-triazol-3-yl)methyl)cyclobutane-1-carbonitrile], the “IL-2 secretion CD3/CD28 0.3 μM” value in [1] and in assay [8] was “A (A indicates >15 fold)” each time. The “IL-2 secretion CD3/CD28 1 μM” value in assay [1] and in assay [8] was “A (A indicates >15 fold)” throughout. The “IL-2 secretion CD3 1 μM” value in [1] and in [8] was “A (A indicates >0.66 fold)” throughout. Also, the “IL-2 secretion CD3 3 μM” value in [1] and in assay [8] was “A (A indicates >0.66 fold)” in each case. Further, the fold induction at 0.3 µM was over 20 in assay [2] (setting [10]) and over 1.39 in assay [7] (setting [10]). For the same molecule, the fold induction at 1 µM in assay [2] (setting [11]) is over 20; in assay [2] (setting [12]), over 0.85; in assay [7] (setting [14]), over 1.39; in assay [7] (setting [15]) it was over 1.15. Moreover, the fold induction at 3 µM in assay [2] (anti-CD3 stimulation alone) is over 0.85; in assay [7] (anti-CD3 stimulation alone) it was over 1.15. Besides, the IC50 in assay [5] (setting [16]), in [6] (setting [16]) and in assay [9] (setting [17]) was under 1 nM throughout.

Consider `C[C@@H]1CN(Cc2cc(C(=O)Nc3cccc([C@]4(Cc5nncn5C)C[C@@H](C#N)C4)c3)nc(C3CC3)c2)CCO1` [Compound 56, N-(3-((1r,3R)-3-cyano-1-((4-methyl-4H-1,2,4-triazol-3-yl)methyl)cyclobutyl)phenyl)-6-cyclopropyl-4-(((R)-2-methylmorpholino)methyl)picolinamide], for which the “IL-2 secretion CD3/CD28 0.3 μM” value in [1] and in assay [8] was “A (A indicates >15 fold)” throughout. The “IL-2 secretion CD3/CD28 1 μM” value in [1] and in assay [8] was “A (A indicates >15 fold)” each time. Besides, the “IL-2 secretion CD3 1 μM” value in [1] and in assay [8] was “A (A indicates >0.66 fold)” throughout. Further, the “IL-2 secretion CD3 3 μM” value in assay [1] and in assay [8] was “A (A indicates >0.66 fold)” in each case. Also, the values for the fold induction at 0.3 µM in assay [2] (setting [10]) and in assay [7] (setting [10]) were 15 to 20 and at most 1.24, respectively. The fold induction at 1 µM was over 20 in assay [2] (setting [11]), 0.4 to 0.85 in [2] (setting [12]), at most 1.24 in [7] (setting [14]) and 1 to 1.15 in assay [7] (setting [15]). The figures for the fold induction at 3 µM in [2] (anti-CD3 stimulation alone) and in [7] (anti-CD3 stimulation alone) were 0.4 to 0.85 and 1 to 1.15, respectively. Besides, the 50% inhibitory concentration (IC50) in [5] (setting [16]), in assay [6] (setting [16]) and in [9] (setting [17]) was under 1 nM throughout.
